Source: ChEMBL document CHEMBL6083286, “Discovery of ERD-12310A as an Exceptionally Potent and Orally Efficacious PROTAC Degrader of Estrogen Receptor α (ERα)” (J Med Chem, 2024)
Active and inactive are the calls of the source. The rule behind the calls is not given here.

Key:
[1] = molecular target: T1, Protein cereblon/Estrogen receptor (Homo sapiens, UniProt P03372+Q96SW2); assay: PROTAC activity at CRBN/ERalpha in human MCF7 cells assessed as reduction in ERalpha protein level measured after 12 hrs by Western blot analysis; format: cell-based
Target sequence in this assay (P03372 whole entry): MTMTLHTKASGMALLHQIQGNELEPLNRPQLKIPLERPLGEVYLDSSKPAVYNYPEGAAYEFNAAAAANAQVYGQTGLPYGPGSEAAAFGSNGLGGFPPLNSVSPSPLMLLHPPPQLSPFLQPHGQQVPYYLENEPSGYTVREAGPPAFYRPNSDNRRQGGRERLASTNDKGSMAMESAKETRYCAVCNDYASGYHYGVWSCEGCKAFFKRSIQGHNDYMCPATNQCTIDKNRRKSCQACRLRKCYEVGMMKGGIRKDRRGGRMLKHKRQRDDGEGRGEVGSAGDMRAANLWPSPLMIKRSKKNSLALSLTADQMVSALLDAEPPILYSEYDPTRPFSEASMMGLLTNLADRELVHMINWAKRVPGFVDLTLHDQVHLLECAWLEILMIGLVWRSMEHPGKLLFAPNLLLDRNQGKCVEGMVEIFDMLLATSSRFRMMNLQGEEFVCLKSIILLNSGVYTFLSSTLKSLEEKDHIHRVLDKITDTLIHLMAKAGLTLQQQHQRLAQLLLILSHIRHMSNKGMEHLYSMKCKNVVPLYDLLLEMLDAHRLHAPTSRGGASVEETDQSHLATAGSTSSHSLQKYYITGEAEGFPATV
Target sequence in this assay (Q96SW2 whole entry): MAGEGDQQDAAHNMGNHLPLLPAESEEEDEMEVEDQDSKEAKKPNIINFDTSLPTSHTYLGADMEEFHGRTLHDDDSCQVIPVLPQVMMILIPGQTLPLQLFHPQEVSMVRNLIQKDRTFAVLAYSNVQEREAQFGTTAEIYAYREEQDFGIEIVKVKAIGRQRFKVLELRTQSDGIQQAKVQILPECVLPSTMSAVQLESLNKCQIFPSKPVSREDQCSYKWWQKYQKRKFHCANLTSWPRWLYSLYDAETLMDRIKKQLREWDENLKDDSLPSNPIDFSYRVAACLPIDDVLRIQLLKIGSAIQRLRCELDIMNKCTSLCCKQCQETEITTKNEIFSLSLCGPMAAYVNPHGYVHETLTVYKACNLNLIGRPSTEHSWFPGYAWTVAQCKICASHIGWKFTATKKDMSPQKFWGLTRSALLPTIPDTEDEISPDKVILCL

[2] = molecular target: T1, Protein cereblon/Estrogen receptor; assay: PROTAC activity at CRBN/ERalpha in human MCF7 cells assessed as reduction in ERalpha protein level measured after 12 hrs by Western blot analysis relative to control; format: cell-based
Target sequence in this assay (P03372 whole entry, looked up): as the sequence (P03372 whole entry) above
Target sequence in this assay (Q96SW2 whole entry, looked up): as the sequence (Q96SW2 whole entry) above

[3] = Drug concentration in female Sprague-Dawley rat plasma at 3 mg/kg, po measured at 1 hr by LC-MS analysis; format: ADME, organism-based
[4] = Drug concentration in female Sprague-Dawley rat plasma at 3 mg/kg, po measured at 3 hrs by LC-MS analysis; format: ADME, organism-based
[5] = Drug concentration in female Sprague-Dawley rat plasma at 3 mg/kg, po measured at 6 hrs by LC-MS analysis; format: ADME, organism-based
[6] = Drug concentration in female Sprague-Dawley rat plasma at 3 mg/kg, po measured at 24 hrs by LC-MS analysis; format: ADME, organism-based
T47D [7] = assay: PROTAC activity at CRBN/ ERalpha Y537S mutant in human T47D cells assessed as reduction in ERalpha protein level at 10 to 100 nM measured at 7 hrs by Western blot analysis; format: cell-based; design: scale not given: the % may be the effect or the level left; conditions: dose 10-100 nM
T47D [8] = assay: PROTAC activity at CRBN/ ERalpha D538G mutant in human T47D cells assessed as reduction in ERalpha protein level at 10 to 100 nM measured at 7 hrs by Western blot analysis; format: cell-based; design: scale not given: the % may be the effect or the level left; conditions: dose 10-100 nM
Protein cereblon = Protein cereblon (Homo sapiens, UniProt Q96SW2); assay: Binding affinity to wild type GST-tagged human CRBN by HTRF assay
[9] = Metabolic stability mouse liver microsome assessed as half life; format: ADME; conditions: microsomes
[10] = Metabolic stability rat liver microsome assessed as half life; format: ADME; conditions: microsomes
[11] = Stability in mouse plasma assessed as half life; format: ADME, cell-free
[12] = Stability in rat plasma assessed as half life; format: ADME, cell-free
[13] = Stability in human plasma assessed as half life; format: ADME, cell-free
[14] = molecular target: T1, Protein cereblon/Estrogen receptor; assay: PROTAC activity at CRBN/wild type ERalpha in human T47D cells assessed as reduction in ERalpha protein level at 10 to 100 nM measured at 7 hrs by Western blot analysis; format: cell-based; conditions: dose 10-100 nM
Target sequence in this assay (P03372 whole entry, looked up): as the sequence (P03372 whole entry) above
Target sequence in this assay (Q96SW2 whole entry, looked up): as the sequence (Q96SW2 whole entry) above

MCF7 = assay: Antiproliferative activity against human MCF7 cells assessed as cell growth inhibition incubated for 4 days by crystal violet staining based assay; format: functional; conditions: time 4.0 day

Chain of Protein cereblon (Q96SW2 whole entry): as above

Row | Compound | DC50 [1] [nM] | Emax [2] [%] | other results
1 | O=C1CC[C@H](N2Cc3c(ccc4c3OCC43CCN(CC(=O)N4CCC5(CC4)CN(c4ccc([C@@H]6c7ccc(O)cc7CC[C@@H]6c6ccccc6)cc4)C5)CC3)C2=O)C(=O)N1 | 0.253 | 102 | concentration at 1 h [3]: 32 ng/mL; concentration at 3 h [4]: 26 ng/mL; concentration at 6 h [5]: 17 ng/mL; concentration at 24 h [6]: < 5 ng/mL
2 | O=C1CC[C@H](N2Cc3c(ccc4c3OCC43CCN(CC4CC5(C4)CN(c4ccc([C@@H]6c7ccc(O)cc7CC[C@@H]6c6ccccc6)cc4)C5)CC3)C2=O)C(=O)N1 | 0.156 | 81 | 
3 | O=C1CC[C@H](N2Cc3c(ccc4c3OCC43CCN(CCCCC4CCN(c5ccc([C@@H]6c7ccc(O)cc7CC[C@@H]6c6ccccc6)cc5)CC4)CC3)C2=O)C(=O)N1 | 0.031 | 105 | 
4 | O=C1CC[C@H](N2Cc3c(ccc4c3OCC43CCN(CC4CC5(CCN(c6ccc([C@@H]7c8ccc(O)cc8CC[C@@H]7c7ccccc7)cc6)CC5)C4)CC3)C2=O)C(=O)N1 | 0.147 | 87 | 
5 | O=C1CCC(N2Cc3c(ccc4c3OCC43CCN(CC4COC5(CCN(c6ccc([C@@H]7c8ccc(O)cc8CC[C@@H]7c7ccccc7)cc6)CC5)C4)CC3)C2=O)C(=O)N1 (stereo partly drawn) | 0.041 | 79 | 
6 | O=C1CC[C@H](N2Cc3c(ccc4c3OCC43CCN(CC4CCC5(CC4)CCN(c4ccc([C@@H]6c7ccc(O)cc7CC[C@@H]6c6ccccc6)cc4)CC5)CC3)C2=O)C(=O)N1 | 0.337 | 99 | 
7 | O=C1CC[C@H](N2Cc3c(ccc4c3OCC43CCN(C(=O)CN4CCCC5(CCN(c6ccc([C@@H]7c8ccc(O)cc8CC[C@@H]7c7ccccc7)cc6)CC5)C4)CC3)C2=O)C(=O)N1 | 0.202 | 95 | 
8 | O=C1CC[C@H](N2Cc3cc(N4CCN(CC5CCN(c6ccc([C@@H]7c8ccc(O)cc8CC[C@@H]7c7ccccc7)cc6)CC5)CC4)ccc3C2=O)C(=O)N1 [VEPDEGESTRANT] |  |  | Activity (T47D [7]): > 80%; Activity (T47D [8]): > 80%
9 | O=C1CC[C@H](N2Cc3c(ccc4c3OCC43CCNCC3)C2=O)C(=O)N1 |  |  | IC50 (Protein cereblon): 230 nM; t1/2 [9]: > 1 h; t1/2 [10]: > 1 h; t1/2 [11]: > 1 h; t1/2 [12]: > 1 h; t1/2 [13]: > 1 h
10 | CN1C(=O)CC[C@H](N2Cc3c(ccc4c3OCC43CCN(C[C@@H]4CCC5(CCN(c6ccc([C@@H]7c8ccc(O)cc8CC[C@@H]7c7ccccc7)cc6)CC5)OC4)CC3)C2=O)C1=O |  |  | Activity (Protein cereblon): inactive; Activity [14]: inactive; Activity (T47D [7]): inactive; Activity (T47D [8]): inactive; Activity (MCF7): Active
11 | CN(C)C[C@@H]1CCC2(CCN(c3ccc([C@@H]4c5ccc(O)cc5CC[C@@H]4c4ccccc4)cc3)CC2)OC1 |  |  | Activity [14]: inactive; Activity (T47D [7]): inactive; Activity (T47D [8]): inactive; Activity (MCF7): Active
12 | O=C1CC[C@H](N2Cc3c(ccc4c3OCC43CCN(C(=O)CC4CCN(c5ccc([C@@H]6c7ccc(O)cc7CC[C@@H]6c6ccccc6)cc5)CC4)CC3)C2=O)C(=O)N1 | 0.025 | 86 | 
13 | O=C1CC[C@H](N2Cc3c(ccc4c3OCC43CCN(CC(=O)N4CCC5(CCN(c6ccc([C@@H]7c8ccc(O)cc8CC[C@@H]7c7ccccc7)cc6)CC5)C4)CC3)C2=O)C(=O)N1 | 0.0419 | 100 | 
14 | O=C1CC[C@H](N2Cc3c(ccc4c3OCC43CCN(CC4CCC5(CCN(c6ccc([C@@H]7c8ccc(O)cc8CC[C@@H]7c7ccccc7)cc6)CC5)C4)CC3)C2=O)C(=O)N1 (stereo partly drawn) | 0.126 | 92 | 
15 | O=C1CC[C@H](N2Cc3c(ccc4c3OCC43CCN(C(=O)CN4CCC5(CC4)CCN(c4ccc([C@@H]6c7ccc(O)cc7CC[C@@H]6c6ccccc6)cc4)CC5)CC3)C2=O)C(=O)N1 | 0.035 | 103 | 
16 | C[C@]12CC[C@@H]3c4ccc(O)cc4C[C@@H](CCCCCCCCC[S+]([O-])CCCC(F)(F)C(F)(F)F)[C@H]3[C@@H]1CC[C@@H]2O (stereo partly drawn) |  | 100 | 
17 | O=C1CC[C@H](N2Cc3c(ccc4c3OCC43CCN(C(=O)C4CCN(c5ccc([C@@H]6c7ccc(O)cc7CC[C@@H]6c6ccccc6)cc5)CC4)CC3)C2=O)C(=O)N1 | 0.028 | 82 | 
18 | O=C1CC[C@H](N2Cc3c(ccc4c3OCC43CCN(CC4COC5(CCN(c6ccc([C@@H]7c8ccc(O)cc8CC[C@@H]7c7ccccc7)cc6)CC5)OC4)CC3)C2=O)C(=O)N1 | 0.167 | 100 | 
19 | O=C1CC[C@H](N2Cc3c(ccc4c3OCC43CCN(CC4CCC5(CCN(c6ccc([C@@H]7c8ccc(O)cc8CC[C@@H]7c7ccccc7)cc6)CC5)OC4)CC3)C2=O)C(=O)N1 (stereo partly drawn) | 0.139 | 99 | 

Row | Compound | DC50 [1] [nM] | Emax [2] [%] | other results
20 | O=C1CC[C@H](N2Cc3c(ccc4c3OCC43CCN(CC4CCC5(CC4)CN(c4ccc([C@@H]6c7ccc(O)cc7CC[C@@H]6c6ccccc6)cc4)C5)CC3)C2=O)C(=O)N1 | 0.11 | 95 | 
21 | O=C1CC[C@H](N2Cc3c(ccc4c3OCC43CCN(C(=O)CN4CC5(CCN(c6ccc([C@@H]7c8ccc(O)cc8CC[C@@H]7c7ccccc7)cc6)CC5)C4)CC3)C2=O)C(=O)N1 | 0.018 | 106 | 
22 | O=C1CC[C@H](N2Cc3c(ccc4c3OCC43CCN(CCCC4CCN(c5ccc([C@@H]6c7ccc(O)cc7CC[C@@H]6c6ccccc6)cc5)CC4)CC3)C2=O)C(=O)N1 | 0.038 | 98 | 
23 | CCNCCc1ccc(CN(CC)c2cc(OC)ccc2[C@@H]2CCc3cc(O)ccc3C2)cc1 |  |  | Activity [14]: Active; Activity (T47D [7]): Active; Activity (T47D [8]): Active
24 | O=C1CC[C@H](N2Cc3c(ccc4c3OCC43CCN(C(=O)CN4CCC5(CC4)CN(c4ccc([C@@H]6c7ccc(O)cc7CC[C@@H]6c6ccccc6)cc4)C5)CC3)C2=O)C(=O)N1 | 0.034 | 96 | concentration at 1 h [3]: 16 ng/mL; concentration at 3 h [4]: 13 ng/mL; concentration at 6 h [5]: 9 ng/mL; concentration at 24 h [6]: < 5 ng/mL
25 | O=C1CC[C@H](N2Cc3c(ccc4c3OCC43CCN(CCC4CCN(c5ccc([C@@H]6c7ccc(O)cc7CC[C@@H]6c6ccccc6)cc5)CC4)CC3)C2=O)C(=O)N1 | 0.0043 | 80 | 
26 | O=C1CC[C@H](N2Cc3c(ccc4c3OCC43CCN(CC(=O)N4CCCC5(CCN(c6ccc([C@@H]7c8ccc(O)cc8CC[C@@H]7c7ccccc7)cc6)CC5)C4)CC3)C2=O)C(=O)N1 | 0.0288 | 99 | 
27 | O=C1CC[C@H](N2Cc3c(ccc4c3OCC43CCN(CC(=O)N4CCC5(CC4)CCN(c4ccc([C@@H]6c7ccc(O)cc7CC[C@@H]6c6ccccc6)cc4)CC5)CC3)C2=O)C(=O)N1 | 0.0363 | 105 | 
28 | O=C1CC[C@H](N2Cc3c(ccc4c3OCC43CCN(CC4CCC5(CCN(c6ccc([C@@H]7c8ccc(O)cc8CC[C@@H]7c7ccccc7)cc6)CC5)O4)CC3)C2=O)C(=O)N1 (stereo partly drawn) | 0.604 | 86 | 
29 | O=C1CC[C@H](N2Cc3c(ccc4c3OCC43CCN(C(=O)CCC4CCN(c5ccc([C@@H]6c7ccc(O)cc7CC[C@@H]6c6ccccc6)cc5)CC4)CC3)C2=O)C(=O)N1 | 0.116 | 89 | 
30 | O=C1CC[C@H](N2Cc3c(ccc4c3OCC43CCN(CC4CCN(c5ccc([C@@H]6c7ccc(O)cc7CC[C@@H]6c6ccccc6)cc5)CC4)CC3)C2=O)C(=O)N1 |  | 37 | 
31 | O=C1CC[C@H](N2Cc3c(ccc4c3OCC43CCN(CCCCCC4CCN(c5ccc([C@@H]6c7ccc(O)cc7CC[C@@H]6c6ccccc6)cc5)CC4)CC3)C2=O)C(=O)N1 | 0.42 | 105 | 
32 | O=C1CC[C@H](N2Cc3c(ccc4c3OCC43CCN(C(=O)CCCC4CCN(c5ccc([C@@H]6c7ccc(O)cc7CC[C@@H]6c6ccccc6)cc5)CC4)CC3)C2=O)C(=O)N1 | 0.079 | 95 | 
33 | O=C1CC[C@H](N2Cc3c(ccc4c3OCC43CCN(C(=O)CN4CCC5(CCN(c6ccc([C@@H]7c8ccc(O)cc8CC[C@@H]7c7ccccc7)cc6)CC5)C4)CC3)C2=O)C(=O)N1 | 0.029 | 107 | 
34 | O=C1CC[C@H](N2Cc3c(ccc4c3OCC43CCN(C(=O)CN4CC5(C4)CN(c4ccc([C@@H]6c7ccc(O)cc7CC[C@@H]6c6ccccc6)cc4)C5)CC3)C2=O)C(=O)N1 | 0.011 | 99 | 
35 | Oc1ccc2c(c1)CC[C@H](c1ccccc1)[C@@H]2c1ccc(OCCN2CCCC2)cc1 |  |  | Activity [14]: inactive; Activity (T47D [7]): inactive; Activity (T47D [8]): inactive
36 | O=C1CC[C@H](N2Cc3c(ccc4c3OCC43CCN(CC4CC5(CCN(c6ccc([C@@H]7c8ccc(O)cc8CC[C@@H]7c7ccccc7)cc6)CC5)CO4)CC3)C2=O)C(=O)N1 (stereo partly drawn) | 0.303 | 94 | 
37 | O=C1CC[C@H](N2Cc3c(ccc4c3OCC43CCN(CC(=O)N4CC5(C4)CN(c4ccc([C@@H]6c7ccc(O)cc7CC[C@@H]6c6ccccc6)cc4)C5)CC3)C2=O)C(=O)N1 | 0.0142 | 99 | 
38 | O=C1CC[C@H](N2Cc3c(ccc4c3OCC43CCN(C[C@H]4CCC5(CCN(c6ccc([C@@H]7c8ccc(O)cc8CC[C@@H]7c7ccccc7)cc6)CC5)OC4)CC3)C2=O)C(=O)N1 | 0.142 | 100 | 
